Among the data in paper PMC9118179, “Ginkgolic acid and anacardic acid are reversible inhibitors of SARS-CoV-2 3-chymotrypsin-like protease” (Cell & Bioscience, 2022) are IC50 and Ki values, retold here.

Assay [1] addresses T1, SARS-CoV-2 3CL^pro (Severe acute respiratory syndrome coronavirus 2, UniProt P0DTD1).
T1 construct: gene rep
Kind of assay: FRET protease assay. It is filed as biochemical.

Assay [2] concerns the target T1, SARS-CoV-2 3CL^pro. Kind of assay: FRET protease assay, Lineweaver-Burk secondary plot. It is filed as biochemical.

In turn, `CCCCCCCCCCCCCCCc1cccc(O)c1C(=O)O` [AA, anacardic acid] came in with an IC50 in assay [1] of 7.6 ± 0.3 µM. In assay [2], affinity was put at a Ki of 1.87 µM.
